Measured values taken from patent publication US20180221295A1, “PHARMACEUTICAL COMPOSITION COMPRISING ELECTROHYDRODYNAMICALLY OBTAINED FIBRES, THE COMPOSITION HAVING IMPROVED RESIDENCE TIME ON THE APPLICATION SITE” (DERMTREAT APS, priority 2015, published 2018).

Columns and labels:
[1] = in vivo; cited from earlier work
[2] = in vivo; cited from earlier work; remark: listed apart in the source
[3] = In vitro drug release testing of fibres in Green's cell culture medium (HPLC); format: physicochemical; details: 1.2x1.2 cm samples in 5 mL Green's cell culture medium, 37° C., 30, 60 and 120 minutes
Method: Compositions: Same as in example 4.
Composition of Green's cell culture medium - Dulbecco's Modified Eagle's Medium: Ham's F12 medium in a 3:1 (v/v) ratio supplemented with 10% (v/v) FCS • 0.1 μM cholera toxin • 10 ng/ml of epidermal growth factor (EGF) • 0.4 μg/ml hydrocortisone • 0.18 mM adenine • 5 μg/ml insulin • 5 μg/ml transferrin • 2 mM glutamine • 0.2 μM triiodothyronine • 0.625 μg/ml amphotericin B • 100 IU/ml penicillin • 100 μg/ml streptomycin
Method of Analysis: • Samples of dimensions 1.2×1.2 cm were cut from each fibre composition and were placed in vials containing 5 mL of Green's cell culture medium. • All vials were incubated at 37° C. for 30, 60 and 120 minutes. • At those time points, 1.5 mL of cell culture media were removed from each vial • The concentration of clobetasol propionate released from the fibres was measured using high-performance liquid chromatography (HPLC).

C/C=C(/C)C(=O)O[C@H]1C(C)=C[C@]23C(=O)[C@@H](C=C(CO)[C@@H](O)[C@]12O)[C@H]1[C@@H](C[C@H]3C)C1(C)C [Ingenol mebutate]
Absorption through the skin [1]: practically not absorbed through the skin

C[C@]12CCC(=O)C=C1CC[C@@H]1[C@@H]2[C@@H](O)C[C@@]2(C)[C@H]1CC[C@]2(O)C(=O)CO [Hydrocortisone]
Absorption from the gut [2]: no significant absorption from the gut

CCC(=O)O[C@]1(C(=O)CCl)[C@@H](C)C[C@H]2[C@@H]3CCC4=CC(=O)C=C[C@]4(C)[C@@]3(F)[C@@H](O)C[C@@]21C [clobetasol propionate]
Release of clobetasol propionate from electrospun fibres [3]: released after immersion in cell culture media
